Patent US9006442B2, “Cannabinoid receptor modulators” (Lupin Limited, priority 2011, dated 2015)
Where two headings read alike, the source gives them in different places.

Target: hCB2 (Homo sapiens, UniProt P34972)
Experiment: cAMP determination in functional hCB2-CHO stable cells (HTRF)
Assay type: cell-based
Method: In-Vitro Assay Method for Determination of cAMP in Functional hCB2—CHO Stable Cells:
Recombinant CHO-hCB2 cells (procured from Perkin Elmer Inc. USA) were propagated and maintained in Ham's F-12 complete medium containing 10% heat inactivated FBS (Sigma.UK) and 1× penstrep. For assay, 0.1×10^6 to 1.0×10^6 CHO-hCB2 cells were seeded in T-25 flask and grown to mid-log phase in culture media without antibiotics for 2-3 days. […] The test is performed in 96^1/2 area black well plates. For agonist testing, 20 μl cells/well were mixed with 20 μl of sample and 10 μl of forskolin (with final concentration of 10 μM) and incubated for 20 to 40 min at room temperature in incubator. The plate was then processed for the cAMP determination using cAMP Femto-2 HTRF kit (Cisbio, Germany) as per the manual.
The concentration of compound required to stimulate a half-maximal response (EC50) was determined using the GraphPad Prism software (version 5).

[1] = CHO-hCB2 cells, cAMP, forskolin 10 μM, agonist testing, read-out: EC50 Range

Chain of hCB2 (P34972 whole entry): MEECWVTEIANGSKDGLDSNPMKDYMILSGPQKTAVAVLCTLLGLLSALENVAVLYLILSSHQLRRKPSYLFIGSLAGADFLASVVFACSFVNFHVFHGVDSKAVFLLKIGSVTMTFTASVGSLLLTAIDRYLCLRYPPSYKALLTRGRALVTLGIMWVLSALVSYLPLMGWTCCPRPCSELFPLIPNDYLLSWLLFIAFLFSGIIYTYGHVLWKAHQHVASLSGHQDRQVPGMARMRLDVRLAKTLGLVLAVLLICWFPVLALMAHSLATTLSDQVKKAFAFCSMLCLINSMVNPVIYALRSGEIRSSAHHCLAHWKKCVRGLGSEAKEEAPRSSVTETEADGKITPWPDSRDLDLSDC

CN(C)C(=O)c1cnc(Nc2cccc(C(F)(F)F)c2Cl)c2cccc(Cl)c12 [compound 317, 5-Chloro-1-((2-chloro-3-(trifluoromethyl)phenyl)amino)-N,N-di methylisoquinolin-4-carboxamide]
EC50 [1]: < 10 nM

CCN(C)C(=O)c1cnc(Nc2c(F)ccc(F)c2F)c2cccc(Cl)c12 [compound 355, 5-Chloro-N-ethyl-N-methyl-1-((2,3,6-trifluorophenyl)amino) isoquinolin-4-carboxamide]
EC50 [1]: 10 to 1000 nM

Cc1cccc2c(Nc3cc(F)c(F)cc3F)ncc(C(=O)N3CCCCC3)c12 [Example-28, (1-((2,4,5-Trifluorophenyl)amino)-5-methylisoquinolin-4-yl)(piperidin-1-yl)methanone]
EC50 [1]: < 10 nM

Cc1c(F)cccc1Nc1ncc(C(=O)N2CCCCC2)c2c(C)cccc12 [Example-96, (1-((3-Fluoro-2-methylphenyl)amino)-5-methylisoquinolin-4-yl)(piperidin-1-yl)methanone]
EC50: < 10 nM

CN(C)C(=O)c1cnc(Nc2cccc(C(F)(F)F)c2F)c2cccc(Cl)c12 [compound 330, 5-Chloro-1-((2-fluoro-3-(trifluoromethyl)phenyl)amino)-N,N-dimethylisoquinolin-4-carboxamide]
EC50 [1]: < 10 nM

CC(C)N(C)C(=O)c1cnc(Nc2cccc(F)c2C(F)(F)F)c2cccc(Cl)c12 [compound 381, 5-Chloro-1-((3-fluoro-2-(trifluoromethyl)phenyl)amino)-N-isopropyl-N-methylisoquinolin-4-carboxamide]
EC50 [1]: 10 to 1000 nM

O=C(c1cnc(Nc2cccc(C(F)(F)F)c2F)c2cccc(C3CC3)c12)N1CCOCC1 [Example-119, (5-Cyclopropyl-1-((2-fluoro-3-(trifluoromethyl)phenyl)amino)isoquinolin-4-yl)(morpholino)methanone]
EC50 [1]: < 10 nM

COC(=O)c1cccc(Nc2ccc(C(=O)N3CCCCC3)c3c(C)cccc23)c1C [compound 409, Methyl 2-methyl-3-((5-methyl-4-(piperidin-1-carbonyl)naphthalen-1-yl)amino)benzoate]
EC50 [1]: < 10 nM

Cc1cccc2c(Nc3ccc(F)cc3)ncc(C(=O)N3CCOCC3)c12 [Example-5, (1-((4-Fluorophenyl)amino)-5-methylisoquinolin-4-yl)(morpholino)methanone]
EC50 [1]: 10 to 1000 nM

Cc1cccc2c(Nc3ccc(F)c(C(F)(F)F)c3)ncc(C(=O)N3CCOCC3)c12 [Example-6, (1-((4-Fluoro-3-(trifluoromethyl)phenyl)amino)-5-methylisoquinolin-4-yl)(morpholino)methanone]
EC50 [1]: < 10 nM

Cc1c(Nc2ncc(C(=O)N(C)C)c3c(Cl)cccc23)cccc1C(F)(F)F [compound 329, 5-Chloro-N,N-dimethyl-1-((2-methyl-3-(trifluoromethyl)phenyl)amino)isoquinolin-4-carboxamide]
EC50: < 10 nM

O=C(c1ccc(Nc2cc(F)cc(F)c2)c2ccccc12)N1CCOCC1 [Example-187, (4-((3,5-Difluorophenyl)amino)naphthalen-1-yl)(morpholino)methanone]
EC50 [1]: 10 to 1000 nM

Cc1cccc2c(Nc3ccc(F)cc3F)ncc(C(=O)N3CCCCC3)c12 [Example-29, (1-((2,4-Difluorophenyl)amino)-5-methylisoquinolin-4-yl)(piperidin-1-yl)methanone]
EC50 [1]: < 10 nM

Cc1ccc(Nc2ccc(C(=O)N3CCOCC3)c3c(C)cccc23)cc1F [Example-152, (4-((3-Fluoro-4-methylphenyl)amino)-8-methylnaphthalen-1-yl)(morpholino)methanone]
EC50: < 10 nM

Cc1cccc2c(Nc3cccc(CF)c3)ncc(C(=O)N3CCOCC3)c12 [Example-12, (1-(((3-Fluoromethyl)phenyl)amino)-5-methylisoquinolin-4-yl)(morpholino)methanone]
EC50: 10 to 1000 nM

CCN(CC)C(=O)c1ccc(Nc2cccc(C(=O)OC)c2C)c2cccc(C)c12 [compound 411, Methyl 2-methyl-3-((5-methyl-4-(diethylcarbamoyl)naphthalen-1-yl)amino)benzoate]
EC50 [1]: < 10 nM

Cc1cccc(Nc2ccc(C(=O)N3CCOCC3)c3c(C)cccc23)c1 [Example-150, (8-Methyl-4-(m-tolylamino)naphthalen-1-yl)(morpholino)methanone]
EC50 [1]: < 10 nM

CCc1cccc2c(Nc3cccc(F)c3F)ncc(C(=O)N3CCCCC3)c12 [Example-124, (1-((2,3-Difluorophenyl)amino)-5-ethylisoquinolin-4-yl)(piperidin-1-yl)methanone]
EC50 [1]: < 10 nM

Cc1c(Cl)cccc1Nc1ncc(C(=O)N(C)C(C)C)c2c(Cl)cccc12 [compound 384, 5-Chloro-1-((3-chloro-2-methylphenyl)amino)-N-isopropyl-N-methylisoquinolin-4-carboxamide]
EC50: 10 to 1000 nM

Cc1c(Nc2ccc(C(=O)N(C)C)c3c(C)cccc23)cccc1C(F)(F)F [compound 427, N,N,8-Trimethyl-4-((2-methyl-3-(trifluoromethyl)phenyl)amino)-1-naphthamide]
EC50 [1]: < 10 nM

CCN(C)C(=O)c1cnc(Nc2cccc(Cl)c2C)c2cccc(Cl)c12 [compound 357, 5-Chloro-1-((3-chloro-2-methylphenyl)amino)-N-ethyl-N-methyl isoquinolin-4-carboxamide]
EC50: < 10 nM

CN(C)C(=O)c1ccc(Nc2cccc(F)c2C(F)(F)F)c2cccc(Cl)c12 [Example-469, 8-Chloro-4-((3-fluoro-2-(trifluoromethyl)phenyl)amino)-N,N-dimethyl-1-naphthamide]
EC50 [1]: 10 to 1000 nM

CCN(CC)C(=O)c1cnc(Nc2cccc(C(=O)OC)c2C)c2cccc(Cl)c12 [compound 249, Methyl 2-methyl-3-((5-chloro-4-(diethylcarbamoyl)isoquinolin-1-yl)amino)benzoate]
EC50 [1]: < 10 nM

Cc1cccc2c(Nc3ccc(Cl)cc3Cl)ncc(C(=O)N3CCOCC3)c12 [Example-90, (1-((2,4-Dichlorophenyl)amino)-5-methylisoquinolin-4-yl)(morpholino)methanone]
EC50 [1]: < 10 nM

CCN(C)C(=O)c1ccc(Nc2cccc(C(F)(F)F)c2C)c2cccc(C)c12 [compound 452, N-Ethyl-N,8-dimethyl-4-((2-methyl-3-(trifluoromethyl)phenyl)amino)-1-naphthamide]
EC50 [1]: < 10 nM

COC(=O)c1cccc(Nc2ccc(C(=O)N3CCCCC3)c3c(C)cccc23)c1 [compound 407, Methyl 3-((5-methyl-4-(piperidin-1-carbonyl)naphthalen-1-yl)amino) benzoate]
EC50 [1]: < 10 nM

Cc1c(F)cccc1Nc1ccc(C(=O)N2CC3CC3C2)c2c(C)cccc12 (centres unmarked) [Example-170, 3-Azabicyclo[3.1.0]hexan-3-yl(4-((3-fluoro-2-methylphenyl)amino)-8-methylnaphthalen-1-yl)methanone]
EC50 [1]: < 10 nM

O=C(NCC1CCOCC1)c1ccc(Nc2cccc(Cl)c2)c2ccccc12 [Example-180, 4-((3-Chlorophenyl)amino)-N-((tetrahydro-2H-pyran-4-yl)methyl)-1-naphthamide]
EC50: 10 to 1000 nM

Cc1cccc2c(Nc3cccc(F)c3F)ccc(C(=O)N3CC4CC(C3)O4)c12 [Example-172, 6-Oxa-3-azabicyclo[3.1.1]heptan-3-yl(4-((2,3-difluorophenyl)amino)-8-methylnaphthalen-1-yl)methanone]
EC50: < 10 nM

CCN(CC)C(=O)c1cnc(Nc2cccc(C(F)(F)F)c2C)c2cccc(C)c12 [compound 279, N,N-Diethyl-5-methyl-1-((2-methyl-3-(trifluoromethyl)phenyl)amino) isoquinolin-4-carboxamide]
EC50: < 10 nM

COC(=O)c1cccc(Nc2ccc(C(=O)N3CCOCC3)c3c(C)cccc23)c1C [compound 410, Methyl 2-methyl-3-((5-methyl-4-(morpholin-4-carbonyl)naphthalen-1-yl)amino)benzoate]
EC50 [1]: < 10 nM

CCc1cccc2c(Nc3cccc(Cl)c3C)ncc(C(=O)N3CCCCC3)c12 [Example-131, (1-((3-Chloro-2-methylphenyl)amino)-5-ethylisoquinolin-4-yl)(piperidin-1-yl)methanone]
EC50 [1]: < 10 nM

Cc1cccc2c(Nc3ccc(F)c(C(F)(F)F)c3)ncc(C(=O)N3CCCCC3)c12 [Example-27, (1-((4-Fluoro-3-(trifluoromethyl)phenyl)amino)-5-methylisoquinolin-4-yl)(piperidin-1-yl)methanone]
EC50: < 10 nM

Cc1ccc(Nc2ncc(C(=O)N3CCCCC3)c3c(C)cccc23)cc1Cl [Example-92, (1-((3-Chloro-4-methylphenyl)amino)-5-methylisoquinolin-4-yl)(piperidin-1-yl)methanone]
EC50: < 10 nM

CCN(C)C(=O)c1cnc(Nc2cccc(F)c2Cl)c2cccc(Cl)c12 [compound 336, 5-Chloro-1-((2-chloro-3-fluorophenyl)amino)-N-ethyl-N-methyl isoquinolin-4-carboxamide]
EC50 [1]: < 10 nM

Cc1cccc2c(Nc3ccc(F)cc3F)ncc(C(=O)N3CCOCC3)c12 [Example-7, (1-((2,4-Difluorophenyl)amino)-5-methylisoquinolin-4-yl)(morpholino)methanone]
EC50 [1]: 10 to 1000 nM

CCc1cccc2c(Nc3cccc(Cl)c3F)ncc(C(=O)N3CCCCC3)c12 [Example-128, (1-((3-Chloro-2-fluorophenyl)amino)-5-ethylisoquinolin-4-yl)(piperidin-1-yl)methanone]
EC50: < 10 nM

Cc1cccc2c(Nc3cccc(F)c3F)ncc(C(=O)N3CCCCC3)c12 [Example-33, (1-((2,3-Difluorophenyl)amino)-5-methylisoquinolin-4-yl)(piperidin-1-yl)methanone]
EC50 [1]: < 10 nM
